Structures are written as SMILES.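 Compound exposure: 48 hours, 5 concentrations, 96-well plates. TGI is the concentration that stops growth completely.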

Some test systems named below: RXF 393 renal; NCI-H522 lung; K-562 leukemia; SK-MEL-5 melanoma.
What all share (test): NCI-60 cell line screen, 48 h

Take `CC1(C)CCc2c(c(N=Nc3ccc(F)cc3)c3ccccc3c2O)O1`: the TGI is greater than 100 µM with RXF 393 renal, greater than 100 µM in the experiment on NCI-H522 lung, greater than 100 µM with K-562 leukemia and 21.1 µM in the experiment with SK-MEL-5 melanoma.

Consider `CCN1CCC(O)(/C=C/c2ccc(C(C)C)cc2)C(C(=O)/C=C/c2ccc(C(C)C)cc2)C1` (stereo not given), for which the TGI is 6.59 µM in the experiment on RXF 393 renal, 4.21 µM in the experiment with NCI-H522 lung, greater than 29 µM in the experiment on K-562 leukemia and 12.7 µM in the experiment on SK-MEL-5 melanoma.

In the case of `C=CCn1c(-c2ccc([N+](=O)[O-])cc2)csc1=N`, the TGI in the experiment on RXF 393 renal is 54.4 µM; in the experiment on NCI-H522 lung it was greater than 100 µM; in the experiment with K-562 leukemia, 91.5 µM; with SK-MEL-5 melanoma it was greater than 100 µM.

On to `C[C@H]1COC2=C1C(=O)C(=O)c1c2ccc2c1CCCC2(C)C`, for which the TGI in the experiment with RXF 393 renal was 55.6 µM; with NCI-H522 lung, 12.3 µM; with K-562 leukemia it was greater than 100 µM; in the experiment with SK-MEL-5 melanoma, 1.43 µM.

Consider `OC(CC(O)(C(F)(F)F)C(F)(F)F)c1ccc(C(O)CC(O)(C(F)(F)F)C(F)(F)F)cc1` (stereo not given), for which the TGI is 30.7 µM in the experiment with RXF 393 renal, 40.5 µM in the experiment with NCI-H522 lung, 60.7 µM in the experiment with K-562 leukemia and 27.3 µM in the experiment on SK-MEL-5 melanoma.

For the molecule `Cc1ccc(-n2cc([Si](C)(C)C)nn2)s1`, the TGI with NCI-H522 lung, with K-562 leukemia and in the experiment with SK-MEL-5 melanoma was greater than 100 µM throughout.

Consider `COc1ccc(C2=NN=C3C(c4ccccc4)=Nc4ccccc4N3C2)cc1`, for which the TGI with RXF 393 renal was 51.8 µM; in the experiment with K-562 leukemia, greater than 100 µM; in the experiment with SK-MEL-5 melanoma, greater than 100 µM.

In the case of `CN(C)CCCNCc1cccc2ccccc12`, the TGI with RXF 393 renal, in the experiment on K-562 leukemia and with SK-MEL-5 melanoma was greater than 100 µM throughout.

For the molecule `CSc1scc2c1/C(=N/NC(N)=O)CCC2`, the TGI with K-562 leukemia and in the experiment on SK-MEL-5 melanoma was greater than 100 µM in each case.

For the molecule `O=C(O)Cn1cc([N+](=O)[O-])c(=O)c2ccccc21`, the TGI in the experiment on NCI-H522 lung, in the experiment on K-562 leukemia and in the experiment on SK-MEL-5 melanoma was greater than 100 µM in each case.

Consider `CC(=O)OC1COC(Nc2nc(N)n(C)c(=O)c2N=O)C(OC(C)=O)C1OC(C)=O` (stereo not given), for which the TGI with RXF 393 renal, in the experiment with NCI-H522 lung and in the experiment on SK-MEL-5 melanoma was greater than 10 µM each time.

For the molecule `CC1=NN(c2nc(N)nc(CF)n2)C(C)(C)C1`, the TGI with RXF 393 renal, in the experiment with K-562 leukemia and with SK-MEL-5 melanoma was greater than 100 µM in each case.

Consider `[N-]=[N+]=Nc1c([N+](=O)[O-])c(=O)n2c3c(cccc13)CCC2`, for which the TGI in the experiment on NCI-H522 lung stood at 4.58 µM; in the experiment with K-562 leukemia, 3.84 µM; in the experiment on SK-MEL-5 melanoma it was 30.3 µM.

Take `C=CC(C)(C)C(=C)C(=O)Nc1ccccc1I`: the TGI with RXF 393 renal, in the experiment with K-562 leukemia and in the experiment on SK-MEL-5 melanoma was greater than 100 µM in each case.

As to `CCN1CCC(O)(/C=C/c2ccc(OC)cc2)C(C(=O)/C=C/c2ccc(OC)cc2)C1` (stereo not given), the TGI in the experiment on RXF 393 renal was found to be 11.9 µM; in the experiment on NCI-H522 lung it was 26.1 µM; in the experiment with K-562 leukemia, 12.2 µM.

On to `COC(=O)C1=C(C(=O)OC)SC2(S1)C(C(=O)OC)=C(C(=O)OC)Sc1c2ssc1=NC(C)(C)C`, for which the TGI in the experiment on RXF 393 renal was 1.96 µM; with K-562 leukemia, 9.66 µM; in the experiment on SK-MEL-5 melanoma it was 4.92 µM.

Regarding `C=C1CN(C2=NCCO2)C1`, the TGI with RXF 393 renal, in the experiment on K-562 leukemia and in the experiment on SK-MEL-5 melanoma was greater than 100 µM throughout.

On to `CC(C)(C)OC(=O)NCC(=O)N1CCN(C(=O)CNC(=O)OC(C)(C)C)CC1`, for which the figures for the TGI with NCI-H522 lung, in the experiment with K-562 leukemia and in the experiment with SK-MEL-5 melanoma were 7.12 µM, greater than 100 µM and greater than 100 µM, respectively.

In the case of `Cc1ccc([N+](=O)[O-])c2c(NCC(O)CO)ccnc12` (stereo not given), the figures for the TGI in the experiment on RXF 393 renal, with K-562 leukemia and in the experiment on SK-MEL-5 melanoma were greater than 100 µM, greater than 100 µM and 42.3 µM, respectively.

For the molecule `C=CCC(C(=O)Nc1cccc2[nH]cnc12)C(=O)OCC` (stereo not given), the TGI with NCI-H522 lung and with K-562 leukemia was greater than 100 µM in each case.

`O=c1ccc2ccc(O)cc2o1`: the TGI in the experiment with RXF 393 renal, in the experiment with NCI-H522 lung and in the experiment with SK-MEL-5 melanoma was greater than 100 µM in each case.

For the molecule `NC1CC=C(COC(=O)C(O)(c2ccccc2)C2CC2)CC1` (stereo not given), the TGI in the experiment on RXF 393 renal, in the experiment on NCI-H522 lung and in the experiment with SK-MEL-5 melanoma was greater than 100 µM throughout.

Consider `CC(=O)Nc1ccccc1NC1CC(C)N(c2ccccc2)N1C(C)=O` (stereo not given), for which the TGI in the experiment on RXF 393 renal, in the experiment with K-562 leukemia and in the experiment on SK-MEL-5 melanoma was greater than 10 µM throughout.

Turning to `COc1cc(Br)c(CC2C3=C(CCN2C(=O)C2CCC2)CC(=O)CC3)cc1O` (stereo not given), the TGI was 34.3 µM in the experiment with NCI-H522 lung, 81.3 µM in the experiment with K-562 leukemia and greater than 100 µM in the experiment on SK-MEL-5 melanoma.

For `O=C(CSc1nc2ccccc2c(=O)n1-c1ccccc1)N=Nc1c(O)[nH]c2ccc(F)cc12`, the TGI in the experiment on RXF 393 renal turned out to be 4.09 µM; in the experiment with K-562 leukemia, 3.35 µM; in the experiment on SK-MEL-5 melanoma, 15.4 µM.

`NC(N)=NCCCC(NC(=O)OCCCCn1ccc(N)nc1=O)C(=O)O` (stereo not given): the TGI in the experiment on RXF 393 renal and in the experiment with K-562 leukemia was greater than 100 µM in each case.

The values above are taken from PubChem BioAssay (NCI).
